# Measurements taken from patent US8637525B2, “Compounds for the reduction of beta-amyloid production” (Bristol-Myers Squibb Company, priority 2009, dated 2014).
# Tested on: Aβ1-42 production
# Assay: Cellular assay for inhibition of Aβ1-42 production (H4 APP751 SWE clone 8.20)
# Format: cell-based
# Conditions: 19 h, H4 APP751 SWE clone 8.20 cells, 19 h incubation; class symbols; read-out: Activity Rating (Aβ42 cellular IC50)
# Outline: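 19 h cell treatment, 37 °C/5% CO2. Detection of secreted Aβ42 in the cell plate: 565 (Aβ42-specific, Wallac) and 26D6 (N-terminal, APC), overnight 4 °C. IC50 from fitted curves.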
row,IC50,Structure (SMILES)
1,10 to 100 nM,"CCNc1nc(Nc2ccc(-n3cnc(C)n3)c(F)c2)nc2c1CN(C)CC2c1ccccc1 (centres unmarked) [Example 152, N4-ethyl-N2-(3-fluoro-4-(3-methyl-1H-1,2,4-triazol-1-yl)phenyl)-6-methyl-8-phenyl-5,6,7,8-tetrahydropyrido[4,3-d]pyrimidine-2,4-diamine]"
2,10 to 100 nM,"CCNc1nc(Nc2ccc(-n3ncnc3C)c(F)c2)nc2c1CN(C)CC2c1ccccc1 (centres unmarked) [Example 153, N4-ethyl-N2-(3-fluoro-4-(5-methyl-1H-1,2,4-triazol-1-yl)phenyl)-6-methyl-8-phenyl-5,6,7,8-tetrahydropyrido[4,3-d]pyrimidine-2,4-diamine]"
3,1.5 to 9.9 nM,"CCNc1nc(Nc2ccc(-n3cnc(Cl)c3)c(OC)c2)nc2c1CN(S(C)(=O)=O)CC2c1ccc(F)cc1 (centres unmarked) [Example 155A, N2-(4-(4-chloro-1H-imidazol-1-yl)-3-methoxyphenyl)-N4-ethyl-8-(4-fluorophenyl)-6-(methylsulfonyl)-5,6,7,8-tetrahydropyrido[4,3-d]pyrimidine-2,4-diamine]"
4,1.5 to 9.9 nM,"CCNc1nc(Nc2ccc(-n3cnc(C)n3)c(F)c2)nc2c1CN(S(C)(=O)=O)CC2c1ccc(F)cc1 (centres unmarked) [Example 156, N4-ethyl-N2-(3-fluoro-4-(3-methyl-1H-1,2,4-triazol-1-yl)pheny)-8-(4-fluorophenyl)-6-(methylsulfonyl)-5,6,7,8-tetrahydropyrido[4,3-d]pyrimidine-2,4-diamine]"
5,10 to 100 nM,"CCNc1nc(Nc2ccc(-n3ncnc3C)c(F)c2)nc2c1CN(S(C)(=O)=O)CC2c1ccc(F)cc1 (centres unmarked) [Example 157, N4-ethyl-N2-(3-fluoro-4-(5-methyl-1H-1,2,4-triazol-1-yl)phenyl)-6-(methylsulfonyl)-8-(4-fluorophenyl)-5,6,7,8-tetrahydropyrido[4,3-d]pyrimidine-2,4-diamine]"
6,10 to 100 nM,"CCN1Cc2c(nc(Nc3ccc(-n4cnc(Cl)c4)c(OC)c3)nc2N(C)CC)C(c2ccc(F)cc2)C1 (centres unmarked) [Example 158, N2-(4-(4-chloro-1H-imidazol-1-yl)-3-methoxyphenyl)-N4,6-diethyl-8-(4-fluorophenyl)-N4-methyl-5,6,7,8-tetrahydropyrido[4,3-d]pyrimidine-2,4-diamine]"
7,10 to 100 nM,"COc1cc(Nc2nc3c(c(N4CC(F)(F)C4)n2)CN(C)CC3c2ccc(F)cc2)ccc1-n1cnc(Cl)c1 (centres unmarked) [Example 159, N-(4-(4-chloro-1H-imidazol-1-yl)-3-methoxyphenyl)-4-(3,3-difluoroazetidin-1-yl)-8-(4-fluorophenyl)-6-methyl-5,6,7,8-tetrahydropyrido[4,3-d]pyrimidin-2-amine]"
8,10 to 100 nM,"COc1cc(Nc2nc3c(c(N4CC(F)(F)C4)n2)CN(S(C)(=O)=O)CC3c2ccc(F)cc2)ccc1-n1cnc(Cl)c1 (centres unmarked) [Example 160, N-(4-(4-chloro-1H-imidazol-1-yl)-3-methoxyphenyl)-4-(3,3-difluoroazetidin-1-yl)-8-(4-fluorophenyl)-6-(methylsulfonyl)-5,6,7,8-tetrahydropyrido[4,3-d]pyrimidin-2-amine]"

# Same assay, conditions: 19 h, H4 APP751 SWE clone 8.20 cells, 19 h incubation; read-out: Activity Rating (Aβ42 cellular IC50), numeric value
row,IC50,Structure (SMILES)
1,9.8 nM,"CCNc1nc(Nc2ccc(-n3cnc(C)n3)c(F)c2)nc2c1CN(S(C)(=O)=O)CC2c1ccc(F)cc1 (centres unmarked) [Example 156A, N4-ethyl-N2-(3-fluoro-4-(3-methyl-1H-1,2,4-triazol-1-yl)pheny)-8-(4-fluorophenyl)-6-(methylsulfonyl)-5,6,7,8-tetrahydropyrido[4,3-d]pyrimidine-2,4-diamine]"

# Same assay, conditions: H4 APP751 SWE clone 8.20 cells, 19 h incubation; class symbols; read-out: Activity Rating (Aβ42 cellular IC50)
row,IC50,Structure (SMILES)
1,10 to 100 nM,"CNc1nc(Nc2ccc(-n3cnc(Cl)c3)c(OC)c2)nc2c1CN(S(C)(=O)=O)CC2c1ccc(F)cc1 (centres unmarked) [Example 154, N2-(4-(4-chloro-1H-imidazol-1-yl)-3-methoxyphenyl)-8-(4-fluorophenyl)-N4-methyl-6-(methylsulfonyl)-5,6,7,8-tetrahydropyrido[4,3-d]pyrimidine-2,4-diamine]"
2,1.5 to 9.9 nM,"CNc1nc(Nc2ccc(-n3cnc(Cl)c3)c(OC)c2)nc2c1CN(S(C)(=O)=O)CC2c1ccc(F)cc1 (centres unmarked) [Example 154A, N2-(4-(4-chloro-1H-imidazol-1-yl)-3-methoxyphenyl)-8-(4-fluorophenyl)-N4-methyl-6-(methylsulfonyl)-5,6,7,8-tetrahydropyrido[4,3-d]pyrimidine-2,4-diamine]"
